Source: paper PMC7391726, “Fatty acid mimetic PBI-4547 restores metabolic homeostasis via GPR84 in mice with non-alcoholic fatty liver disease” (Scientific Reports, 2020)

Assays:
HepG2 hepatocytes = experiment: Mitochondrial respiration (Seahorse OCR) in HepG2 hepatocytes; format: cell-based; settings: HepG2, 24 h treatment
Method: Moreover, hepatic expression of several genes involved in glucose metabolism including Pklr (pyruvate kinase L/R), G6pc (glucose-6-phosphatase, catalytic) and Slc2a2 (Glut2) was normalized by PBI-4547 (Fig. 4B). […] To test this hypothesis, mitochondrial respiration in HepG2 hepatocytes was measured (Fig. 4C). […] However, it did decrease maximal respiration and ATP production, in agreement with the metabolomics results.
Figure 4 Effects of PBI-4547 on glucose and FA metabolism in liver. (A) Relative gene expression levels of glucose and FA-related metabolism in liver from STD, HFD and HFD + PBI-4547 mice. Data are presented as geometric mean ± SEM (n ≥ 6 per group, one-way ANOVA with Dunnett’s multicomparison test vs HFD group). (B) 1H-NMR metabolic profiling in liver tissues. (C) Oxygen Consumption Rate (OCR) and Extracellular Acidifcation Rate (ECAR) in HepG2 hepatocytes. Measurements of basal respiration, maximal respiration, ATP production and proton leak in HepG2 hepatocytes treated or not with PBI-4547. (D) Oxidation rate of ^14C-palmitate in HepG2 hepatocytes treated or not with PBI-4547. Data are presented as mean ± SEM (n = 3, Student t test Ctrl vs PBI-4547). See also Fig. S2.
Oxygen consumption rate (OCR) and extracellular acidification rate (ECAR) were measured with a Seahorse XF96 as per manufacturer’s protocol (Agilent). Briefly, 8 × 10^4 HepG2 cells were plated onto Seahorse XF96 96-well plates for 24 h prior to stimulation. The next day, cells were treated with PBI-4547 or with vehicle control for 24 h. Cells were subjected to a mitochondrial stress test with serial injections of Oligomycin (1 μM; ATPase inhibitor), FCCP (1 μM; mitochondrial uncoupler) and Rotenenone/Antimycin A (1 μM; complex I/III inhibitor).

CCl4 mouse = experiment: Carbon tetrachloride (CCl4)-induced liver fibrosis; format: in vivo
Source text: Since fibrosis contributes directly to the progression from NAFLD to NASH, we next evaluated the effect of PBI-4547 pro-fibrotic gene expression. […] Pro-inflammatory genes were not modulated by treatment with PBI-4547. […] As liver fibrosis was relatively mild in HFD-fed mice, we performed separate studies to evaluate the antifibrotic effect of PBI-4547, in rodent models of carbon tetrachloride (CCl4)- and bile duct ligation (BDL)-induced liver fibrosis.

HFD-fed Gpr84−/− mice = experiment: High-fat diet (HFD) mouse model, Gpr84−/− mice; format: in vivo
Method: Based on PBI-4547’s pharmacological profile and binding activities, we next used Gpr84^−/− mice fed a HFD to investigate the role of GPR84 in mediating the protective effects of PBI-4547 on glucose and FA metabolism.
WT or Gpr84^−/− mice, as previously described, (aged 10–14 weeks at the beginning of the experiment) were either fed a standard diet (STD) or a high-fat diet (HFD) (Envigo #TD.06414) for 14 weeks. At this point, mice were administered either vehicle (water) or PBI-4547 (10 mg/kg) on a daily basis for 6 (WT study) or 8 (WT vs KO study) weeks by gastric gavage, and were sacrificed thereafter. Liver and WAT tissues were fixed in 10% formalin for histological analyses or flash frozen in liquid nitrogen for RT-PCR analyses. All animal studies were reviewed and approved by the animal care and use committee of the Institut National de la Recherche Scientifique – Armand-Frappier (Laval, QC, Canada) and the University of Ottawa’s Animal Care and Veterinary Services (Ottawa, ON, Canada). Protocols were approved and undertaken according to the Canadian Council on Animal Care guidelines.
Oral glucose tolerance tests (OGTT) were completed 6 weeks after beginning of the treatments. Briefly, mice were fasted for 4–6 h, given a bolus of glucose at […] BW orally, and blood glucose values measured at 0, 15, 30, 60, 120 min. In parallel, a blood sample was obtained at 0, 15, 60 and 120 min for insulin quantification by ELISA (EMD Millipore).
After fixation in formalin, iWAT (inguinal), eWAT (epididymal) and liver sections were embedded in paraffin. Thin section of […] were stained with Hematoxylin and Eosin or Sirius red for analyses. WAT collagen deposition and liver characteristics of NAFLD were quantified histologically by a pathologist (R.C.) in a double-blinded manner. Liver histology was performed on H&E stained slides. WAT collagen deposition was scored using Picro Sirius-Red stained slides. Immunofluorescence-detection of α-SMA in liver sections was performed. Briefly, samples were deparaffinized in a series of xylenes, rehydrated in graded alcohols followed by an antigen-unmasking step by microwaving in Tris-buffer (pH 8.2). Sections were blocked with 10% donkey serum (Vector labs), 1% bovine serum albumin (Sigma) in PBS + 1%Tween for 1 h at room temperature. Slides were incubated overnight at 4 °C with an anti-mouse smooth muscle α-Actin antibody (1:300; Santa Cruz, clone #1A4). Secondary detection was performed using a donkey anti-mouse Alexa Fluor 594 (1:500; Molecular Probes), incubated for 1 h at room temperature. Slides were dehydrated and mounted with fluorescent antifade media containing DAPI (Vector labs). Images were taken at 100X and 200X magnification and representative images are shown.
RNA was extracted and purified as previously described. Real-time quantitative PCR was performed on a CFX96 Touch Real-Time PCR Detection System (Bio-Rad) using TaqMan gene expression assays (Fisher Scientific). qPCR data were analyzed using the 2-^ΔΔCt method, using Gapdh and Hprt as endogenous control. RT-qPCR data were reported as Geometric means ± SEM.

[1] = WT vs KO study, HFD-fed Gpr84−/−

CCCCCc1cc(CCCCC)cc(CC(=O)[O-])c1.[Na+] [PBI-4547, 2-[3,5-dipentylphenyl]acetate sodium salt]
ATP production (HepG2 hepatocytes): decrease | basal oxygen consumption rate (OCR) (HepG2 hepatocytes): did not affect | maximal respiration (HepG2 hepatocytes): decrease | mitochondrial proton leak (HepG2 hepatocytes): significantly increased | liver collagen deposition (CCl4 mouse): significantly decreased | immunodetectable α-SMA in liver (HFD-fed Gpr84−/− mice; HFD-fed GPR84−/− mice): further decreased | impact on hepatic steatosis (HFD-fed Gpr84−/− mice; HFD-fed Gpr84−/− (KO) mice): protective effect was lost | expression of hepatic genes previously found regulated by PBI-4547 in WT mice (HFD-fed Gpr84−/− mice; HFD-fed Gpr84−/− mice, qRT-PCR): no longer modulated | WAT mean adipocyte diameters and area (HFD-fed Gpr84−/− mice; [1]): remained unchanged | fasting blood glucose levels (HFD-fed Gpr84−/− mice; [1]): only in WT mice | serum adiponectin (HFD-fed Gpr84−/− mice; [1]): upregulated | serum cholesterol levels (HFD-fed Gpr84−/− mice; [1]): remained unchanged | serum triglyceride levels (HFD-fed Gpr84−/− mice; [1]): only in WT mice | OGTT (HFD-fed Gpr84−/− mice; WT vs KO study, HFD-fed Gpr84−/−, after 6 weeks): only had a significant effect on OGTT in WT mice | modulatory effect on pro-inflammatory and pro-fibrotic markers in WAT (HFD-fed Gpr84−/− mice; mice lacking the GPR84 receptor): absent
